Measured values published in patent US10385108B2, “Peptide analogs of alpha-melanocyte stimulating hormone” (Genzyme Corporation, priority 2008, dated 2019).
Where two headings read alike, the source gives them in different places.

Tests used:
[1] = system: C57BL/6 mice; experiment: MOG35-55 primed mice treated in the priming phase: recall response, cytokines, macrophage markers; type: in vivo
Procedure: C57BL/6 mouse splenocytes and lymph node cells were cultured in 96 well plates 5×10^5 cells/well. MOG35-55 or OVA 257-264 peptide was added to wells at a concentration of 25 μg/ml. Supernatant was collected at 48 hrs after MOG peptide stimulation. After 3 days in culture cells were pulsed with [3H] thymidine at 1 μCi/well for 8 hrs. Thymidine incorporation was measured by cpm.
Total RNA was extracted from tissues with TRIZOL® (Invitrogen, Carlsbad, Calif.). 1 μg of total RNA was reverse transcribed and used in quantitative PCR by using SYBR® green incorporation with reagents from Applied Biosystems (Foster City, Calif.) on an ABI 7900. A cDNA standard was run in each PCR for cytokine targets and message concentrations were normalized to mouse β-actin. […] The sequences for mouse IL-10 primers were forward: […] (SEQ ID NO:29) and reverse: […] (SEQ ID NO:30) (2). The sequences for mouse β-actin primers were: forward […] (SEQ ID NO:31) and reverse […] (SEQ ID NO:32) (3).
Flow cytometric analysis of inflammatory cytokine profiles of mouse serum or cell supernatant were measured using the Cytometric Bead Array Kit (CBA) made by BD Biosciences (San Jose, Calif.). Samples were processed according to the manufacturer's protocol.
On Day 9, spleen and draining lymph nodes were harvested and analyzed for recall responses to MOG35-55 peptide in vitro by [3H] thymidine incorporation.
Cytokine levels were evaluated through a cytometric bead array by flow cytometry.
Spleens from individual mice were harvested on Day 9 and mRNA cytokine expression was quantitated using real time PCR. […] Naïve mice that were not immunized with MOG peptide were used to quantitate baseline mRNA levels of TNF-α and IL-10.
Blood serum samples were also collected on day 9 of the study and evaluated for cytokine levels: TNF-α, MCP-1, IL-12, IL-10, and IL-6 (FIGS. 13C and 13D).

[2] = system: B10.RIII mice
Procedure: Female B10.RIII were injected subcutaneously at two sites (between shoulder blades and in pelvic region) with a total of 200 μg interphotoreceptor binding protein peptide (IRBP) 161-180 (New England Peptide; Fitchburg, Mass.), respectively in 2 mg/ml complete Freund's adjuvant (CFA; Sigma, St. Louis, Mo.) with mycobacterium tuberculosis H37Ra (Difco, Detroit, Mich.).
The eyes of mice are dilated using one or two drops of Mydriacyl 1% (Alcon; Humacao, Puerto Rico) and rested in a darkened room for approximately 5 min. Mice are manually restrained and the retinas of both eyes are visualized using an indirect ophthalmoscope with a 78 diopter lens. The eyes are scored for inflammation using a progressive scoring system between 0-5. Score 0: Normal retina. Score 1: Vascular inflammation proximal to the optic nerve. Score 2: <5 inflammatory lesions confined to one quadrant of the eye. Score 3: >5 inflammatory lesions in more than one quadrant of the eye. Score 4: Inflammatory lesions are contiguous. Score 5: Retinal detachment. Whole eyes from mice were harvested and placed in PBS. The eyes were embedded in OCT media for frozen fixation. 5-μm sections were cut through the papillary-optic nerve plane and stained with hematoxylin and eosin.
Uveitis was induced in B10.RIII mice with an injection of IRBP 161-180 and CFA.
Current forms of therapy for uveitis include corticosteroids and immunosuppressive agents. […] Uveitis was induced in B10.RIII mice with IRBP161-180 and CFA injections. […] Mice were treated daily for 21 days.
EAU was induced in female B10.RIII mice with IRBP 161-180.
Uveitis was induced in B10.RIII mice with IRBP161-180 and CFA injections. […] Individual weights of the mice were recorded at 4 timepoints throughout the course of disease.
B10.RIII mice were injected with IRBP161-180 and CFA to induce uveitis. […] Treatment was initiated at peak time of disease when mice reached eye scores of 4 which included inflammatory lesions throughout the posterior segment of the eye and possible hemorrhaging.

[3] = Peptide stability in plasma or PBS in vitro at 37° C.; type: in vitro ADME; conditions: 24 hours
Procedure: The stability of RI-α-MSH was determined by incubation in plasma or PBS in vitro at 37° C. for 24 hours. Aliquots were taken and proteins precipitated with 2 volumes of acetonitrile. α-MSH was used as a control and bradykinin as an internal standard. After centrifugation, samples were frozen at −80° C. until LC/MS/MS (MRM) analysis using a C18 column separation and positive electrospray ionization mode.

[4] = Serum levels after a single dose in mice; type: in vivo
[5] = target: MC1R (Homo sapiens, UniProt Q01726); experiment: Competitive binding with 125I-NDP-MSH, HEK293 membrane preparations, MC1R;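 further: Read-out: receptor-bound radioligand retained by filtration and counted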
Procedure: Binding analysis was done by Cerep laboratories (Paris, France) with coded samples.
The mixtures were filtered through 96-well GFC filters (Millipore, Billerica, Mass.), washed 3 times with binding buffer without BSA, dried and counted.
A competitive binding assay using a MCR panel including MCR 1, 3, 4, and 5 was performed.

[6] = 100 μg i.p. days 2-8, harvested day 9

MC1R, sequence (Q01726 whole entry): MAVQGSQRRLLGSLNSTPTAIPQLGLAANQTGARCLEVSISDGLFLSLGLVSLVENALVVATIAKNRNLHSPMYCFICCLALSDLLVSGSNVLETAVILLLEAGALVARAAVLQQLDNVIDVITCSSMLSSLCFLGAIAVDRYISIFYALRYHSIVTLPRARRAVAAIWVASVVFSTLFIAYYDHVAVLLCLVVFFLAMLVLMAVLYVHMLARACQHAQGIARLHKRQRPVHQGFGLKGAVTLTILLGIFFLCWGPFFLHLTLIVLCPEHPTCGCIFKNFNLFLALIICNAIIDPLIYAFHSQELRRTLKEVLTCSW

stability in PBS (in words) [3]: stable both in PBS and plasma | stability in plasma (in words) ([3]; in vitro): no detectable degradation over 24 hours | serum half-life compared (in words) ([4]; mouse, in vivo, iv): longer serum half-life than native α-MSH | affinity for MC1R lower than that of the native MSH peptide [5]: 11 fold | Ki ([5]; Ki MC1R, competition with 125I-NDP-MSH): 4.6 ± 1.3 nM | binding to MCR-1 (in words) ([5]; MCR panel 1, 3, 4, 5): bind only to MCR-1
Compound: CSCC[C@@H](NC(=O)[C@@H](CCC(=O)O)NC(=O)[C@@H](Cc1c[nH]cn1)NC(=O)[C@@H](Cc1ccccc1)NC(=O)[C@@H](CCCNC(=N)N)NC(=O)[C@@H](Cc1c[nH]c2ccccc12)NC(=O)CNC(=O)[C@@H](CCCCN)NC(=O)[C@H]1CCCN1C(=O)[C@H](NC(C)=O)C(C)C)C(=O)N[C@H](CO)C(=O)N[C@H](Cc1ccc(O)cc1)C(=O)N[C@H](CO)C(N)=O [RI-MSH, vpkGwrfhemsys]
proliferative recall response of spleen cells to MOG35-55 (in words) [1, 6]: slight reduction in recall responses | recall response of lymph node cells to MOG peptide (in words) [1, 6]: did not show a significant difference | expression of CD86, CD40, CD14 on splenic CD11b+ or F4/80+ macrophages (in words) ([1]; 7 days of daily dosing, 100 μg/mouse): no difference in the expression levels | TNF-α, IFNγ, IL-6 and MCP-1 levels in spleen cell supernatant vs PBS (in words) ([1]; cells stimulated with MOG35-55 in vitro): decrease | serum IL-6 vs PBS (in words) ([1]; day 9): decrease | serum IL-10 (in words) ([1]; day 9): no difference | serum MCP-1 vs PBS (in words) ([1]; day 9): significantly decreased | serum TNF-α and IL-12 vs PBS (in words) ([1]; day 9): decrease | IL-10 and TNF-α mRNA in spleen vs PBS (in words) ([1]; priming phase, treated days 2-8, day 9): decreased levels | uveitis course (in words) ([2]; 3 μg/mouse i.p. daily from eye scores of 4): did not reduce or inhibit disease | uveitis course (in words) ([2]; 10 μg/mouse i.p. daily from eye scores of 4): rapidly ameliorated uveitis | mean clinical eye scores vs scrambled peptide (in words) ([2]; 100 μg/mouse i.p. daily for 13 days from eye scores 2-3, days 15, 21 and 23): significant reduction | uveitis course (in words) ([2]; 100 μg/mouse i.p. daily from eye scores of 4): rapidly ameliorated uveitis | mice with individual maximum eye scores ≤1 ([2]; 100 μg/mouse i.p. daily, day 23 after disease induction): 75% | efficacy in uveitis, treatment at onset of disease (in words) ([2]; 100 μg/mouse i.p., from eye score 1, data not shown): had efficacy in uveitis | mean clinical eye scores vs PBS (in words) ([2]; 100 μg/mouse i.v. daily from eye scores of 2): significant reduction of mean clinical eye scores | eye score in retina images (median of group) ([2]; 100 μg/mouse i.v. daily from late stage, day 13 after start of treatment): 1 | histological examination of the eyes (in words) ([2]; 100 μg/mouse i.v. daily, 10 days after start of treatment): reduced pathology in the eye | mice with eye scores of 3 or greater ([2]; 100 μg/mouse i.v. daily, day 13 after start of treatment): 2 of the 11 | mice with a maximum eye score of 3 or greater ([2]; 100 μg/mouse i.v. daily, day 16, four days after start of treatment): 0 of the 8 | serum levels after a single dose (in words) ([4]; single dose of 100 μg, mice, n=5): measurable serum levels of RI-α-MSH after 24 hrs
